Experiments:
Italian ryegrass = assay: Test E Italian ryegrass; format: in vivo, Lolium multiflorum; details: Preemergence; for I. Ryegrass plant response rating (0 to 100 scale): Rate 250 g/ha
surinam grass = assay: Test B pre/postemergence surinam grass; format: in vivo, Brachiaria decumbens
How it was run: (§1)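 Test chemicals in a non-phytotoxic solvent mixture with surfactant were sprayed preemergence onto planted seeds and postemergence onto plants 2 to 18 cm tall (1- to 4-leaf stage). After twelve to sixteen days in a greenhouse, injury was visually rated against untreated controls from 0 (no effect) to 10 (complete control).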

bedstraw = assay: Test B pre/postemergence bedstraw; format: in vivo, Galium aparine
How it was run: as §1

winter barley = assay: Test E winter barley; format: in vivo, Hordeum vulgare; details: Preemergence; for Barley (winter) plant response rating (0 to 100 scale): Rate 250 g/ha
winter wheat [1] = assay: Test E winter wheat; format: in vivo, Triticum aestivum; details: Postemergence; for Wheat (winter) plant response rating: Rate 250 g/ha
How it was run: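 For postemergence, application to 1- to 4-leaf plants growing in a 60:40 sandy loam–potting mix substrate. Formulation: non-phytotoxic solvent mixture plus surfactant. Untreated controls served as the reference for the visual rating after ~21–28 days.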

bamyardgrass = assay: Test B flood test barnyardgrass; format: in vivo, Echinochloa crus-galli
How it was run: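 Each value is a visual injury score relative to controls, with 10 meaning complete control and 0 no effect. Evaluation took place twelve to sixteen days after the 2-leaf-stage plants were treated and kept in the greenhouse.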

wild oat [2] = assay: Test B pre/postemergence wild oat; format: in vivo, Avena fatua
How it was run: as §1

winter wheat [3] = assay: Test E winter wheat; format: in vivo, Triticum aestivum; details: Preemergence; for Wheat (winter) plant response rating (0 to 100 scale): Rate 250 g/ha
wild oat [4] = assay: Test E wild oat; format: in vivo, Avena fatua; details: Preemergence; for Wild oat plant response rating (0 to 100 scale): Rate 250 g/ha
blackgrass = assay: Test E blackgrass; format: in vivo, Alopecurus myosuroides; details: Preemergence; for Blackgrass plant response rating (0 to 100 scale): Rate 250 g/ha
green foxtail = assay: Test E green foxtail; format: in vivo, Setaria viridis; details: Preemergence; for Green foxtail plant response rating (0 to 100 scale): Rate 250 g/ha
[5] = Rate 500 g/ha, 0 to 100 scale where 0 is no effect and 100 is complete control
[6] = Preemergence, Rate 62 g/ha, scale of 0 to 10 where 0 is no effect and 10 is complete control
[7] = Preemergence, Rate 250 g/ha, scale 0 to 10, 0 is no effect, 10 is complete control
[8] = Preemergence, Rate 500 g/ha, scale of 0 to 10 where 0 is no effect and 10 is complete control
[9] = Rate 62 g/ha, Postemergence, scale of 0 to 10 where 0 is no effect and 10 is complete control
[10] = Rate 125 g/ha, Postemergence, scale 0 (no effect) to 10 (complete control)
[11] = Rate 125 g/ha, Preemergence, scale of 0 to 10 where 0 is no effect and 10 is complete control
[12] = Rate 500 g/ha, Postemergence, scale 0 to 10, 0 no effect, 10 complete control
[13] = Preemergence, Rate 250 g/ha, scale of 0 to 10 where 0 is no effect and 10 is complete control
[14] = Rate 125 g/ha, Postemergence, scale 0 to 10
[15] = Rate 125 g/ha, 0 to 100 scale (0 no effect, 100 complete control)
[16] = Rate 500 g/ha, 0 to 100 scale, 0 is no effect, 100 is complete control
[17] = Rate 62 g/ha, headed Pre-emergence (flood test species), scale 0 to 10 (0 no effect, 10 complete control)
[18] = Rate 125 g/ha, Pre-emergence, flood test species, scale 0 to 10 where 0 is no effect and 10 is complete control
[19] = Rate 250 g/ha, Pre-emergence, flood-test species, scale 0 to 10, 0 is no effect, 10 is complete control
[20] = Rate 500 g/ha, Pre-emergence, flood test species, scale 0 to 10 (0 no effect, 10 complete control)
[21] = Rate 1000 g/ha, 0 to 100 scale, 0 no effect, 100 complete control
[22] = Rate 1000 g/ha, 0 to 100 scale where 0 is no effect and 100 is complete control
[23] = 0 to 100 scale where 0 is no effect and 100 is complete control

SMILES: CC(=O)OCCCCn1c(=O)on(C(=O)N(c2ccc(F)cc2)C(C)C)c1=O [Compound 211]
- I. Ryegrass plant response rating (0 to 100 scale) (Italian ryegrass): 0
- Plant response rating, I. Ryegrass (Italian ryegrass; [5]): 10
- B. signalgrass plant response rating (surinam grass; [6]): 0
- B. signalgrass plant response rating (surinam grass; [7]): 0
- Plant response rating, B. signalgrass (surinam grass; [8]): 5
- B. signalgrass plant response rating (surinam grass; [9]): 0
- B. signalgrass plant response rating (surinam grass; [10]): 0
- B. signalgrass plant response rating (surinam grass; [11]): 0
- Plant response rating (0 to 10; 0 is no effect, 10 is complete control), B. signalgrass (surinam grass; Rate 250 g/ha, Postemergence): 0
- B. signalgrass plant response rating (surinam grass; [12]): 0
- Bedstraw plant response rating (bedstraw; [6]): 0
- Bedstraw plant response rating (bedstraw; [13]): 0
- Plant response rating, Bedstraw (bedstraw; [8]): 10
- Bedstraw plant response rating (bedstraw; [9]): 4
- Bedstraw plant response rating (bedstraw; [14]): 7
- Bedstraw plant response rating (bedstraw; [11]): 0
- Bedstraw plant response rating (bedstraw; Rate 500 g/ha, Postemergence, scale 0 to 10): 8
- Plant response rating, Barley (winter) (winter barley; [15]): 10
- Barley (winter) plant response rating (0 to 100 scale) (winter barley): 20
- Plant response rating, Barley (winter) (winter barley; [5]): 10
- Plant response rating, Wheat (winter) (winter wheat [1]; Rate 125 g/ha, 0 to 100 scale, 0 is no effect, 100 is complete control): 20
- Plant response rating, Wheat (winter) (winter wheat [1]; [16]): 40
- Barnyardgrass plant response rating (bamyardgrass; [17]): 0
- Barnyardgrass plant response rating (bamyardgrass; [18]): 0
- Barnyardgrass plant response rating (bamyardgrass; [19]): 0
- Barnyardgrass plant response rating (bamyardgrass; [20]): 0
- Wild oats plant response rating (wild oat [2]; [6]): 0
- Wild oats plant response rating (wild oat [2]; [13]): 5
- Plant response rating, Wild oats (wild oat [2]; [8]): 5
- Wild oats plant response rating (wild oat [2]; [9]): 0
- Wild oats plant response rating (wild oat [2]; [14]): 0
- Wild oats plant response rating (wild oat [2]; [11]): 4
- Plant response rating (0 to 10; 0 is no effect, 10 is complete control), Wild oats (wild oat [2]; Rate 250 g/ha, Postemergence): 0
- Plant response rating, Wheat (winter) (winter wheat [3]; [15]): 50
- Wheat (winter) plant response rating (0 to 100 scale) (winter wheat [3]): 35
- Plant response rating, Wheat (winter) (winter wheat [3]; [5]): 30
- Plant response rating, Wild oat (wild oat [4]; [15]): 20
- Plant response rating, Wild oat (wild oat [4]; [5]): 40
- Plant response rating, Blackgrass (blackgrass; [15]): 0
- Blackgrass plant response rating (0 to 100 scale) (blackgrass): 0
- Plant response rating, Blackgrass (blackgrass; [5]): 50
- Plant response rating, Green foxtail (green foxtail; [15]): 0
- Green foxtail plant response rating (0 to 100 scale) (green foxtail): 10
- Plant response rating, Green foxtail (green foxtail; [5]): 20

SMILES: Cc1ccccc1N(C(=O)n1oc(=O)n(-c2ccccc2C)c1=O)C(C)C [Compound 236]
- I. Ryegrass plant response rating (0 to 100 scale) (Italian ryegrass): 20
- Plant response rating, I. Ryegrass (Italian ryegrass; [5]): 40
- Plant response rating, I. Ryegrass (Italian ryegrass; [21]): 55
- B. signalgrass plant response rating (surinam grass; [6]): 0
- B. signalgrass plant response rating (surinam grass; [7]): 0
- Plant response rating, B. signalgrass (surinam grass; [8]): 3
- B. signalgrass plant response rating (surinam grass; [9]): 0
- B. signalgrass plant response rating (surinam grass; [10]): 0
- B. signalgrass plant response rating (surinam grass; [11]): 0
- Plant response rating (0 to 10; 0 is no effect, 10 is complete control), B. signalgrass (surinam grass; Rate 250 g/ha, Postemergence): 0
- B. signalgrass plant response rating (surinam grass; [12]): 0
- Bedstraw plant response rating (bedstraw; [6]): 0
- Bedstraw plant response rating (bedstraw; [13]): 0
- Plant response rating, Bedstraw (bedstraw; [8]): 0
- Bedstraw plant response rating (bedstraw; [9]): 0
- Bedstraw plant response rating (bedstraw; [14]): 0
- Bedstraw plant response rating (bedstraw; [11]): 0
- Plant response rating (0 to 10; 0 is no effect, 10 is complete control), Bedstraw (bedstraw; Rate 250 g/ha, Postemergence): 0
- Bedstraw plant response rating (bedstraw; [12]): 4
- Barley (winter) plant response rating (0 to 100 scale) (winter barley): 20
- Plant response rating, Barley (winter) (winter barley; [5]): 40
- Plant response rating, Barley (winter) (winter barley; [21]): 50
- Plant response rating, Wheat (winter) (winter wheat [1]; [22]): 10
- Wheat (winter) plant response rating (winter wheat [1]; [23]): 0
- Plant response rating, Wheat (winter) (winter wheat [1]; [16]): 0
- Barnyardgrass plant response rating (bamyardgrass; [17]): 0
- Barnyardgrass plant response rating (bamyardgrass; [18]): 0
- Barnyardgrass plant response rating (bamyardgrass; [19]): 0
- Barnyardgrass plant response rating (bamyardgrass; [20]): 0
- Wild oats plant response rating (wild oat [2]; [6]): 0
- Wild oats plant response rating (wild oat [2]; [13]): 0
- Plant response rating, Wild oats (wild oat [2]; [8]): 2
- Wild oats plant response rating (wild oat [2]; [9]): 0
- Wild oats plant response rating (wild oat [2]; [14]): 0
- Wild oats plant response rating (wild oat [2]; [11]): 0
- Plant response rating (0 to 10; 0 is no effect, 10 is complete control), Wild oats (wild oat [2]; Rate 250 g/ha, Postemergence): 0
- Wild oats plant response rating (wild oat [2]; [12]): 0
- Wheat (winter) plant response rating (0 to 100 scale) (winter wheat [3]): 0
- Plant response rating, Wheat (winter) (winter wheat [3]; [5]): 10
- Plant response rating, Wheat (winter) (winter wheat [3]; [21]): 20
- Wild oat plant response rating (0 to 100 scale) (wild oat [4]): 20
- Plant response rating, Wild oat (wild oat [4]; [5]): 30
- Plant response rating, Wild oat (wild oat [4]; [21]): 50
- Blackgrass plant response rating (0 to 100 scale) (blackgrass): 60
- Plant response rating, Blackgrass (blackgrass; [5]): 60
- Plant response rating, Blackgrass (blackgrass; [21]): 70
- Green foxtail plant response rating (0 to 100 scale) (green foxtail): 85
- Plant response rating, Green foxtail (green foxtail; [5]): 100
- Plant response rating, Green foxtail (green foxtail; [21]): 100

SMILES: CC(C)N(C(=O)n1oc(=O)n([C@H](C)c2ccccc2)c1=O)c1ccc(F)cc1F [Compound 238]
- I. Ryegrass plant response rating (0 to 100 scale) (Italian ryegrass): 50
- Plant response rating, I. Ryegrass (Italian ryegrass; [21]): 85
- B. signalgrass plant response rating (surinam grass; [6]): 0
- B. signalgrass plant response rating (surinam grass; [7]): 0
- Plant response rating, B. signalgrass (surinam grass; [8]): 0
- B. signalgrass plant response rating (surinam grass; [9]): 0
- B. signalgrass plant response rating (surinam grass; [10]): 0
- B. signalgrass plant response rating (surinam grass; [11]): 0
- Plant response rating (0 to 10; 0 is no effect, 10 is complete control), B. signalgrass (surinam grass; Rate 250 g/ha, Postemergence): 0
- B. signalgrass plant response rating (surinam grass; [12]): 0
- Bedstraw plant response rating (bedstraw; [6]): 0
- Bedstraw plant response rating (bedstraw; [13]): 0
- Plant response rating, Bedstraw (bedstraw; [8]): 3
- Bedstraw plant response rating (bedstraw; [9]): 0
- Bedstraw plant response rating (bedstraw; [14]): 2
- Bedstraw plant response rating (bedstraw; [11]): 0
- Plant response rating (0 to 10; 0 is no effect, 10 is complete control), Bedstraw (bedstraw; Rate 250 g/ha, Postemergence): 8
- Bedstraw plant response rating (bedstraw; [12]): 8
- Barley (winter) plant response rating (0 to 100 scale) (winter barley): 40
- Plant response rating, Barley (winter) (winter barley; [21]): 30
- Plant response rating, Wheat (winter) (winter wheat [1]; [22]): 40
- Wheat (winter) plant response rating (winter wheat [1]; [23]): 60
- Barnyardgrass plant response rating (bamyardgrass; [17]): 0
- Barnyardgrass plant response rating (bamyardgrass; [18]): 0
- Barnyardgrass plant response rating (bamyardgrass; [19]): 0
- Barnyardgrass plant response rating (bamyardgrass; [20]): 0
- Wild oats plant response rating (wild oat [2]; [6]): 0
- Wild oats plant response rating (wild oat [2]; [13]): 0
- Plant response rating, Wild oats (wild oat [2]; [8]): 3
- Wild oats plant response rating (wild oat [2]; [9]): 0
- Wild oats plant response rating (wild oat [2]; [11]): 0
- Wild oats plant response rating (wild oat [2]; [12]): 0
- Wheat (winter) plant response rating (0 to 100 scale) (winter wheat [3]): 40
- Plant response rating, Wheat (winter) (winter wheat [3]; [21]): 50
- Wild oat plant response rating (0 to 100 scale) (wild oat [4]): 50
- Plant response rating, Wild oat (wild oat [4]; [21]): 50
- Blackgrass plant response rating (0 to 100 scale) (blackgrass): 50
- Plant response rating, Blackgrass (blackgrass; [21]): 75
- Green foxtail plant response rating (0 to 100 scale) (green foxtail): 70
- Plant response rating, Green foxtail (green foxtail; [21]): 100
